This note sets out measurements from US20250270513A1, “METHOD FOR PRODUCING CULTURED TISSUE, AND PREPARATION FOR EXTERNAL APPLICATION” (National University Corporation Ehime University, priority 2019, published 2025).

The subject of data set [1] is three-dimensional cultured skin (dermal tissue layer fibroblasts). The experiment in a line: Staining test of tissue sections of three-dimensional cultured skin (Test Example 1). In kind it is cell-based, human. An excerpt: • (4) The obtained tissue sections of each three-dimensional cultured skin were stained with HE, EVG, HABP, K10, K5, Alcian blue, SMA and Ki67 by a conventional method. For Ki67 staining, a Ki67 antibody (manufactured by Novocastra Laboratories Ltd) and a secondary antibody (manufactured by Vector Laboratories) were used.

Data set [2] concerns fibroblasts of the dermal tissue layer of three-dimensional cultured skin. In words: Cell proportion per cell cycle by flow cytometry (FCM), PI staining (Test Example 1). In kind it is cell-based, human. As to the method: • (5) Of the obtained three-dimensional cultured skin, a dermal tissue layer composed of fibroblasts was separated and DNA-stained with propidium iodide (PI). Next, the proportion of fibroblasts for each cell cycle was analyzed by FCM using Cycle TEST PLUS DNA Reagent Kit (manufactured by BD).
In general terms: In flow cytometry, cells or beads pass a laser one at a time.

The subject of data set [3] is human normal skin keratinocytes. The experiment in a line: Culture of keratinocytes alone without collagen gel containing fibroblasts (Test Example 1). Format: cell-based. The settings on record: 100 mg/mL trehalose in medium, no fibroblast collagen gel. Here is the method:
• (2) Next, the collagen gel (layered dermal cell structure) containing NHDF was pre-cultured for 5 days using a DMEM medium containing 50 μg/ml ascorbic acid, 10 v/v % FCS, and 1 v/v % ABAM. Next, human normal skin keratinocytes suspended in MCDB medium were seeded on the collagen gel surface so as to be 1.28×10^5 cells/cm^2, and a medium obtained by mixing equal amounts of MCDB Type-II medium (Growth Medium 2 in JP-B2-3066624) and EGM was added to an external liquid of the cell culture insert and the inside of the insert, followed by culturing at 37° C. for 2 days.
On the other hand, when 100 mg/mL trehalose was added to the medium of (2) without collagen gel containing fibroblasts and culture was performed with keratinocytes alone, formation of epithelial tissue layer was not observed as in the absence of trehalose.

Data set [4] relates to keratinocytes on layered dermal cell structure containing fibroblasts. The experiment in a line: Large scale three-dimensional cultured tissue, confluent keratinocyte sheet, gas-liquid interface culture (Test Example 2). In kind it is cell-based, human. The settings on record: 100 mg/mL trehalose in dermal cell structure; confluent keratinocyte sheet of about 1 cm; 75 mm insert; 5 days. Here is the method:
• (1) A layered dermal cell structure containing trehalose at a final concentration of 0 or 100 mg/mL was prepared according to the method (1) of Test Example above except that 10 mL of the gel solution I was added to a cell culture insert with a diameter of 75 mm, and 32 mL of the gel solution containing fibroblasts at the same cell density as in (1) was layered. • (2) A ring with a diameter of 1 cm was placed on the obtained collagen gel, and keratinocytes were seeded inside the ring and cultured in MCDB Type-II-EGM (1:1) medium for 2 days. As a result, a sheet of keratinocytes (epithelial cell layer) with a diameter of about 1 cm is formed on the collagen gel. • (3) When the keratinocytes became confluent, the ring was removed and the medium was replaced with CM medium, and gas-liquid interface culture was performed for 5 days in the same manner as in the method (3) of Test Example 1.

For data set [5], the system named is NHDF (normal human skin fibroblasts). In words: Monolayer culture of fibroblasts, optical microscope observation (Test Example 3-1). In kind it is cell-based. The settings on record: 24 hours monolayer.
In data set [6] the test system is ERK1/2 (Thr202/Tyr204 phosphorylated). In words: Western blotting of phosphorylated ERK1/2 in fibroblasts (Test Example 3-1). Format: cell-based, human. The settings on record: 0, 10, 100 mg/mL trehalose in medium, 24 hours. As to the method: The cells were further DNA-stained with PI and subjected to FCM, and the proportion of each cell cycle was examined.
(3) Furthermore, proteins were extracted from the fibroblasts obtained in (1) using RIPA buffer (1% protein inhibitor (manufactured by SIGMA)+Phosphatase Inhibitor cocktail (manufactured by SIGMA)). Then, 10 μg of protein per sample was separated by SDS-PAGE by a conventional method, transferred to a PVDF membrane, and then subjected to Western blotting. Phosphorylated ERK1/2 and phosphorylated AKT were detected by ECL Prime Western Blotting Detection Reagent (manufactured by GE Healthcare), using Phospho-p44/p42 MAPK (Erk1/2) (Thr202/Tyr204) (D13.14.4E) XP Rabbit mAb (#4300, Cell Signaling) and Phospho-Akt (Ser473) antibody (#9271, manufactured by Cell Signaling Technology) as a primary antibody, and an anti-rabbit IgG antibody and an anti-mouse IgG antibody manufactured by PROMEGA were used as secondary antibodies, and visualized by Image Quant LAS4010 (manufactured by GE Healthcare).
Background: A western blot detects proteins with antibodies after separation by electrophoresis.

The subject of data set [7] is EREG, ARG2, CCL2, IL1RN, PGF, SPP1, VEGFA, AREG and DPT mRNA. In words: qPCR of genes in monolayer fibroblasts, 24 hours (Test Example 3-3). The settings on record: 100 mg/mL trehalose (Treha 100). Format: cell-based, human. Here is the method:
In the same manner as in Test Example 3-2, NHDF was cultured in 1% FCS and 1% ABAM-containing DMEM medium containing 0, 30, or 100 mg/mL trehalose or hyaluronic acid oligosaccharide 4mer (HA4) (product code 11006, manufactured by Cosmo Bio Co., Ltd.) for 24 hours, and RNA was recovered from the cells. Also, as a control, RNA was recovered from fibroblasts before treatment (0 h in FIG. 9). The obtained sample was subjected to the same operation as in Test Example 3-2, and qPCR for genes EREG, ARG2, CCL2, IL1RN, PGF, SPP1, VEGFA, AREG and DPT was performed. GAPDH was used as a reference gene.
(In general: Quantitative PCR measures a nucleic acid by following its amplification.)

The test system of data set [8] is EREG, ARG2, CCL2, IL1RN, PGF, SPP1, VEGFA, DPT and FGF2 mRNA. The experiment in a line: qPCR of genes in fibroblasts in collagen gel, 3 days (Test Example 3-4). In kind it is cell-based, human. The settings on record: 100 mg/mL trehalose (Treha 100). As to the method:
A collagen gel containing NHDF was prepared according to the method (1) of Test Example 1. The obtained collagen gel was cultured in DMEM medium containing 0 or 100 mg/mL trehalose, 1% FCS and 1% ABAM for 3 days, and RNA was recovered from the cells. The obtained sample was subjected to the same operation as in Test Example 3-2, and qPCR for genes EREG, ARG2, CCL2, IL1RN, PGF, SPP1, VEGFA, DPT and FGF2 was performed. GAPDH was used as a reference gene.

[9] abbreviates: Trehalose concentration 100 mg/mL, n = 2, averages.

On to `OC[C@H]1O[C@H](O[C@H]2O[C@H](CO)[C@@H](O)[C@H](O)[C@H]2O)[C@H](O)[C@@H](O)[C@@H]1O` [trehalose, α, α-trehalose], for which, in data set [1] (0, 10, 100 mg/mL trehalose), the “Ki67 positive cells in the dermal tissue layer” value is “increased as the concentration of trehalose increased”. The “difference in staining pattern depending on the concentration of trehalose” value in data set [1] (HE, EVG, HABP, K10, K5, Alcian blue, SMA stains (all except Ki67), 0, 10, 100 mg/mL) was “no difference”. The “proportions of fibroblasts in S phase and G2 phase” value in data set [2] (100 mg/mL vs 0 mg/mL trehalose) was “significantly increased”. Also, in data set [2] (setting [9]), the “Proportion of cells in cell cycle, G1” value was 62.5%; the “Proportion of cells in cell cycle, G2” value worked out at 14.0%; the “Proportion of cells in cell cycle, S” value was 15.3%. The “formation of epithelial tissue layer” value in data set [3] was “not observed”. The “expansion of the epithelial tissue layer during gas-liquid interface culture” value in data set [4] was “expanded to the outer edge of the culture insert”. Also, the “increase in the number of cells” value in data set [5] (10 mg/mL trehalose) is listed as “slightly suppressed”. In addition, in data set [5] (100 mg/mL trehalose), the “appearance of damage to cells” value is “no appearance of any damage”, the cell morphology result was “the number of spindle-shaped cells was large” and the “increase in the number of cells” value was “further suppressed”. Moreover, the “phosphorylation of ERK1/2” value in data set [6] is on record as “promoted as the concentration of trehalose in the medium increases”. The “mRNA expression levels of genes EREG, ARG2, CCL2, IL1RN, PGF, SPP1, VEGFA, AREG and DPT compared to vehicle” value in data set [7] is “remarkably increased”. In addition, in data set [8], the “mRNA expression levels of genes EREG, ARG2, CCL2, ILIRN, PGF, SPP1, VEGFA, DPT and FGF2 compared to vehicle” value is “significantly increased”.
